Reference: PubChem BioAssay (NCI)
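GI50: concentration for 50% inhibition of growth. The concentration for full growth arrest is given as TGI.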

What was measured:
Test in all cases: NCI tumour cell line growth inhibition, 384-well format
MOLT-4 leukemia = tested on: MOLT-4 leukemia
HS 578T breast = tested on: HS 578T breast
MALME-3M melanoma = tested on: MALME-3M melanoma
NCI-H226 lung = tested on: NCI-H226 lung
HCT-15 colon = tested on: HCT-15 colon
DU-145 prostate = tested on: DU-145 prostate
HCT-116 colon = tested on: HCT-116 colon
T-47D breast = tested on: T-47D breast
OVCAR-3 ovarian = tested on: OVCAR-3 ovarian
MDA-MB-435 melanoma = tested on: MDA-MB-435 melanoma
COLO 205 colon = tested on: COLO 205 colon
SK-MEL-28 melanoma = tested on: SK-MEL-28 melanoma
CAKI-1 renal = tested on: CAKI-1 renal
SR leukemia = tested on: SR leukemia
M14 melanoma = tested on: M14 melanoma
SK-MEL-5 melanoma = tested on: SK-MEL-5 melanoma
MDA-MB-468 breast = tested on: MDA-MB-468 breast
U251 glioblastoma = tested on: U251 glioblastoma
HCC-2998 colon = tested on: HCC-2998 colon
SK-OV-3 ovarian = tested on: SK-OV-3 ovarian
TK-10 renal = tested on: TK-10 renal
SF-268 CNS = tested on: SF-268 CNS
LOX IMVI melanoma = tested on: LOX IMVI melanoma
PC-3 prostate = tested on: PC-3 prostate
OVCAR-5 ovarian = tested on: OVCAR-5 ovarian
HL-60(TB) leukemia = tested on: HL-60(TB) leukemia
BT-549 breast = tested on: BT-549 breast

Molecule `CCOc1ccccc1N=Nc1c(C)[nH]n(-c2nc(-c3ccccc3)cs2)c1=O` has a GI50 (MOLT-4 leukemia) of 98.9 µM, a TGI (MOLT-4 leukemia) greater than 100 µM and a GI50 (HS 578T breast) greater than 100 µM. For the same molecule, the TGI (HS 578T breast) was greater than 100 µM, the GI50 (MALME-3M melanoma) was greater than 100 µM and the TGI (MALME-3M melanoma) was greater than 100 µM. The GI50 (NCI-H226 lung) was greater than 100 µM, the TGI (NCI-H226 lung) was greater than 100 µM and the GI50 (HCT-15 colon) was greater than 100 µM. The TGI (HCT-15 colon) was greater than 100 µM, the GI50 (DU-145 prostate) was greater than 100 µM and the TGI (DU-145 prostate) was greater than 100 µM. The GI50 (HCT-116 colon) was greater than 100 µM, the TGI (HCT-116 colon) was greater than 100 µM and the GI50 (T-47D breast) was greater than 100 µM. The TGI (T-47D breast) was greater than 100 µM, the GI50 (OVCAR-3 ovarian) was greater than 100 µM and the TGI (OVCAR-3 ovarian) was greater than 100 µM. For the same molecule, the GI50 (MDA-MB-435 melanoma) was greater than 100 µM, the TGI (MDA-MB-435 melanoma) was greater than 100 µM and the GI50 (COLO 205 colon) was greater than 100 µM. For the same molecule, the TGI (COLO 205 colon) was greater than 100 µM, the GI50 (SK-MEL-28 melanoma) was greater than 100 µM and the TGI (SK-MEL-28 melanoma) was greater than 100 µM. For the same molecule, the GI50 (CAKI-1 renal) was greater than 100 µM, the TGI (CAKI-1 renal) was greater than 100 µM and the GI50 (SR leukemia) was greater than 100 µM. For the same molecule, the TGI (SR leukemia) was greater than 100 µM, the GI50 (M14 melanoma) was greater than 100 µM and the TGI (M14 melanoma) was greater than 100 µM. The GI50 (SK-MEL-5 melanoma) was greater than 100 µM, the TGI (SK-MEL-5 melanoma) was greater than 100 µM and the GI50 (MDA-MB-468 breast) was 1.47 µM. It also gave a TGI (MDA-MB-468 breast) of 9.75 µM, a GI50 (U251 glioblastoma) greater than 100 µM and a TGI (U251 glioblastoma) greater than 100 µM. For the same molecule, the GI50 (HCC-2998 colon) was greater than 100 µM, the TGI (HCC-2998 colon) was greater than 100 µM and the GI50 (SK-OV-3 ovarian) was greater than 100 µM. The TGI (SK-OV-3 ovarian) was greater than 100 µM, the GI50 (TK-10 renal) was greater than 100 µM and the TGI (TK-10 renal) was greater than 100 µM. For the same molecule, the GI50 (SF-268 CNS) was greater than 100 µM, the TGI (SF-268 CNS) was greater than 100 µM and the GI50 (LOX IMVI melanoma) was greater than 100 µM. The TGI (LOX IMVI melanoma) was greater than 100 µM, the GI50 (PC-3 prostate) was greater than 100 µM and the TGI (PC-3 prostate) was greater than 100 µM. It also gave a GI50 (OVCAR-5 ovarian) greater than 100 µM, a TGI (OVCAR-5 ovarian) greater than 100 µM and a GI50 (HL-60(TB) leukemia) of 21.4 µM. For the same molecule, the TGI (HL-60(TB) leukemia) was greater than 100 µM, the GI50 (BT-549 breast) was greater than 100 µM and the TGI (BT-549 breast) was greater than 100 µM.
